From US8022091B2, “Triazole derivative” (Taisho Pharmaceutical Co., Ltd., priority 2006, dated 2011)

Target: T1, human Edg-1 (S1P1) (Homo sapiens, UniProt P21453)
T1 construct: expressed in transfected cells; host or cells: HEK-293
Assay: S1P1 binding assay: inhibition of [33P]-S1P binding to membrane fraction of HEK-293 cells transferred with the human Edg-1 (S1P1) gene
Settings: test compound at 10 μM; inhibition of [33P]-S1P binding to the membrane fraction of HEK-293 cells expressing human Edg-1 (S1P1)
Method: The membrane fraction was obtained by treating the cells with a solubilizing buffer (1 mM Tris/HCl, pH 7.2) for 10 minutes on ice, centrifuging at 1000×g for 5 minutes to remove insoluble fractions, and then centrifuging at 40000×g for 30 minutes at 4° C. The resulting membrane fraction was dissolved in a binding buffer (20 mM Tris-HCl, pH 7.4, 100 mM NaCl, 15 mM NaF, 2 mM deoxypyridoxine, 4 mg/mL fatty acid-free BSA), and then [^33P]-S1P (manufactured by ARC, final concentration 0.1 nM) and a DMSO solution (final concentration of the compound 10^−5M, final concentration of DMSO 0.1%) of the test compound were added. Thereafter, the mixture was stirred and then treated for one hour at 30° C. Using a harvester, the membrane fraction was harvested onto unifilter-96 GF/C filter (manufactured by Perkin Elmer), washing was carried out four times with the binding buffer, and the filter was dried. Twenty five μL Microscint 0 (manufactured by Perkin Elmer) was added, and radioactivity was measured using Top Count NXT (manufactured by Packard) to calculate the amount (A) of [^33P]-S1P bound to the membrane fraction at the time when the compound was added.
The same procedure was carried out in the absence of the test compound, and the amount (B) of [^33P]-S1P bound was calculated. Further, the same procedure was carried out in the absence of the test compound by use of HEK-293 cells to which no Edg-1 (S1P1) gene was introduced, and the background amount (C) of [^33P]-S1P bound was calculated.
Inhibition rate (%)=[1−(A−C)/(B−C)]×100
Further, concentrations (IC50) at the time when binding in the absence of the test compound was inhibited by 50% were calculated. The membrane system binding assay was carried out in the presence of test compounds with various concentrations, and the Edg-1 (S1P1) binding inhibition rates were calculated using the equation above. Then, IC50 values were calculated using Origin (Lightstone Corp.), a software for data analysis.

T1 sequence (P21453 whole entry): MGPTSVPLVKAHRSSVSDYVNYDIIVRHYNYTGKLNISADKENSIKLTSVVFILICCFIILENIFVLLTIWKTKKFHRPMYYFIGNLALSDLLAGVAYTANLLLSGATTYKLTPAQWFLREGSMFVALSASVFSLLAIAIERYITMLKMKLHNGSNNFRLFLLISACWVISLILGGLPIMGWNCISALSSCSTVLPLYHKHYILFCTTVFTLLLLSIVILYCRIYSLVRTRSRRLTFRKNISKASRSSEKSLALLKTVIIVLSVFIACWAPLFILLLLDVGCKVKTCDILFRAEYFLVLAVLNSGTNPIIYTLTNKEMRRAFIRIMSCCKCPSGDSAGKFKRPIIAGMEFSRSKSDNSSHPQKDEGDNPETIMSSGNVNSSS

Row | SMILES | inhibition at 10 µM [%]
1 | CCn1c(Oc2ccc(F)cc2)nnc1[C@@H](C)NS(=O)(=O)c1cc(F)ccc1C [Compound 219] | 70.8
2 | Cc1c(C)c(C)c(S(=O)(=O)N[C@H](C)c2nnc(Oc3ccc(F)cc3)n2C)c(C)c1C [Compound 220] | 93.7
3 | CCn1c(Oc2ccc(F)cc2)nnc1[C@@H](C)NS(=O)(=O)c1cc(C)ccc1OC [Compound 221] | 69.2
4 | CCn1c(Oc2ccc(F)cc2)nnc1[C@@H](C)NS(=O)(=O)c1ccc(C#N)cc1 [Compound 223] | 90.8
5 | CCn1c(Oc2ccc(F)cc2)nnc1[C@@H](C)NS(=O)(=O)c1ccc(Cl)cc1Cl [Compound 226] | 80.4
6 | CCn1c(Oc2ccc(F)cc2)nnc1[C@@H](C)NS(=O)(=O)c1ccc(F)cc1F [Compound 227] | 51.4
7 | CCn1c(Oc2ccc(F)cc2)nnc1[C@@H](C)NS(=O)(=O)c1cc(OC)ccc1OC [Compound 228] | 53.9
8 | CCn1c(Oc2ccc(F)cc2)nnc1[C@@H](C)NS(=O)(=O)c1cccc(Cl)c1 [Compound 231] | 65.1
9 | CCn1c(Oc2ccc(F)cc2)nnc1[C@@H](C)NS(=O)(=O)c1ccc(C(C)C)cc1 [Compound 232] | 68.7
10 | CCn1c(Oc2ccc(F)cc2)nnc1[C@@H](C)NS(=O)(=O)c1cc(F)cc(Cl)c1C [Compound 233] | 87.1
11 | CCc1cc(Br)ccc1S(=O)(=O)N[C@H](C)c1nnc(Oc2ccc(F)cc2)n1CC [Compound 234] | 50.6
12 | CCn1c(Oc2ccc(F)cc2)nnc1[C@@H](C)NS(=O)(=O)c1ccc(Br)cc1C [Compound 235] | 82.9
13 | CCn1c(Oc2ccc(F)cc2)nnc1[C@@H](C)NS(=O)(=O)c1cc(F)c(F)cc1Cl [Compound 240] | 82.5
14 | CCn1c(Oc2ccc(F)cc2)nnc1[C@@H](C)NS(=O)(=O)c1ccc(Br)cc1F [Compound 242] | 85.9
15 | CCn1c(Oc2ccc(F)cc2)nnc1[C@@H](C)NS(=O)(=O)c1cc(F)c(Cl)cc1F [Compound 243] | 90
16 | CCn1c(Oc2ccc(F)cc2)nnc1[C@@H](C)NS(=O)(=O)c1cc(Br)c(F)cc1F [Compound 244] | 94.6
17 | CCn1c(Oc2ccc(F)cc2)nnc1[C@@H](C)NS(=O)(=O)c1cc(Cl)c(F)cc1F [Compound 245] | 89.3
18 | CCn1c(Oc2ccc(F)cc2)nnc1[C@@H](C)NS(=O)(=O)c1cc(C)c(Cl)cc1Cl [Compound 248] | 105
19 | CCn1c(Oc2ccc(F)cc2)nnc1[C@@H](C)NS(=O)(=O)c1cc(C(F)(F)F)ccc1Cl [Compound 251] | 59
20 | CCn1c(Oc2ccc(F)cc2)nnc1[C@@H](C)NS(=O)(=O)c1c(C)cc(Cl)cc1Cl [Compound 255] | 86.4

Row | SMILES | inhibition at 10 µM [%]
21 | CCn1c(Oc2ccc(F)cc2)nnc1[C@@H](C)NS(=O)(=O)c1cc(F)c(F)cc1F [Compound 256] | 85.2
22 | CCn1c(Oc2ccc(F)cc2)nnc1[C@@H](C)NS(=O)(=O)c1ccc(Br)cc1Br [Compound 260] | 74.1
23 | CCn1c(Oc2ccc(F)cc2)nnc1[C@@H](C)NS(=O)(=O)c1ccc(F)c(C#N)c1 [Compound 261] | 73.6
24 | CCn1c(Oc2ccc(F)cc2)nnc1[C@@H](C)NS(=O)(=O)c1cc(C)cc(C)c1 [Compound 262] | 79.6
25 | CCn1c(Oc2ccc(F)cc2)nnc1[C@@H](C)NS(=O)(=O)c1ccc(OC(F)F)cc1 [Compound 263] | 82.6
26 | CCn1c(Oc2ccc(F)cc2)nnc1[C@@H](C)NS(=O)(=O)c1cc(F)cc(F)c1 [Compound 266] | 99
27 | CCn1c(Oc2ccc(F)cc2)nnc1[C@@H](C)NS(=O)(=O)c1ccc(Cl)cc1F [Compound 267] | 89.6
28 | CCn1c(Oc2ccc(F)cc2)nnc1[C@@H](C)NS(=O)(=O)c1ccc(F)cc1Br [Compound 269] | 91.5
29 | CCn1c(Oc2ccc(F)cc2)nnc1[C@@H](C)NS(=O)(=O)c1ccc(C(F)(F)F)cc1Br [Compound 270] | 73
30 | CCn1c(Oc2ccc(F)cc2)nnc1[C@@H](C)NS(=O)(=O)c1ccc(C)c(F)c1 [Compound 272] | 104
31 | CCn1c(Oc2ccc(F)cc2)nnc1[C@@H](C)NS(=O)(=O)c1ccc(Br)c(F)c1 [Compound 275] | 107
32 | CCn1c(Oc2ccc(F)cc2)nnc1[C@@H](C)NS(=O)(=O)c1ccc(Br)cc1Cl [Compound 276] | 94.4
33 | CCn1c(Oc2ccc(F)cc2)nnc1[C@@H](C)NS(=O)(=O)c1ccc2c(c1)OCCO2 [Compound 289] | 106
34 | CCn1c(Oc2ccc(F)cc2)nnc1[C@@H](C)NS(=O)(=O)c1ccc2nsnc2c1 [Compound 292] | 107
35 | CCn1c(Oc2ccc(F)cc2)nnc1[C@@H](C)NS(=O)(=O)c1ccc(C(F)(F)F)cc1Cl [Compound 303] | 77.4
36 | CCn1c(Oc2ccc(F)cc2)nnc1[C@@H](C)NS(=O)(=O)c1cccc(C(C)=O)c1 [Compound 306] | 60.2
37 | CCn1c(Oc2ccc(F)cc2)nnc1[C@@H](C)NS(=O)(=O)c1ccc(F)c2ccccc12 [Compound 307] | 94.4
38 | CCn1c(Oc2ccc(F)cc2)nnc1[C@@H](C)NS(=O)(=O)c1cc(Br)cc(C(F)(F)F)c1 [Compound 319] | 61.7
39 | CCn1c(Oc2ccc(F)cc2)nnc1[C@@H](C)NS(=O)(=O)c1cc2ccccc2s1 [Compound 323] | 77.9
40 | CCn1c(Cc2ccc(F)cc2)nnc1[C@@H](C)NS(=O)(=O)c1csc2ccccc12 [Compound 324] | 81.8

The remaining lines, values ahead:

Row | inhibition at 10 µM [%] | SMILES
41 | 64.8 | CCn1c(Oc2ccc(F)cc2)nnc1[C@@H](C)NS(=O)(=O)c1ccc(F)c(F)c1F [Compound 237]
42 | 95.8 | CCn1c(Oc2ccc(F)cc2)nnc1[C@@H](C)NS(=O)(=O)c1ccc(F)c(F)c1 [Compound 241]
43 | 82.8 | CCn1c(Oc2ccc(F)cc2)nnc1[C@@H](C)NS(=O)(=O)c1cccc(F)c1 [Compound 252]
44 | 75.1 | CCn1c(Oc2ccc(F)cc2)nnc1[C@@H](C)NS(=O)(=O)c1cc(Cl)ccc1OC [Compound 254]
45 | 78.2 | CCn1c(Oc2ccc(F)cc2)nnc1[C@@H](C)NS(=O)(=O)c1cc(Br)ccc1Br [Compound 257]
46 | 67.9 | CCn1c(Oc2ccc(F)cc2)nnc1[C@@H](C)NS(=O)(=O)c1ccc(-c2ccno2)s1 [Compound 258]
47 | 95.9 | CCn1c(Oc2ccc(F)cc2)nnc1[C@@H](C)NS(=O)(=O)c1cccc(OC(F)F)c1 [Compound 264]
48 | 59.1 | CCn1c(Oc2ccc(F)cc2)nnc1[C@@H](C)NS(=O)(=O)c1c(F)cc(F)cc1Br [Compound 265]
49 | 99.9 | CCn1c(Oc2ccc(F)cc2)nnc1[C@@H](C)NS(=O)(=O)c1cc(F)c(F)c(F)c1 [Compound 268]
50 | 57.1 | CCn1c(Oc2ccc(F)cc2)nnc1[C@@H](C)NS(=O)(=O)c1cc(C(F)(F)F)ccc1Br [Compound 271]
51 | 71.6 | CCn1c(Oc2ccc(F)cc2)nnc1[C@@H](C)NS(=O)(=O)c1ccc(F)cc1C [Compound 273]
52 | 53.5 | CCn1c(Oc2ccc(F)cc2)nnc1[C@@H](C)NS(=O)(=O)c1cc(Cl)ccc1F [Compound 274]
53 | 79.6 | CCn1c(Oc2ccc(F)cc2)nnc1[C@@H](C)NS(=O)(=O)c1cc(C)ccc1F [Compound 279]
54 | 87.3 | CCn1c(Oc2ccc(F)cc2)nnc1[C@@H](C)NS(=O)(=O)c1cccc(Cl)c1F [Compound 280]
55 | 60.6 | CCn1c(Oc2ccc(F)cc2)nnc1[C@@H](C)NS(=O)(=O)CC1CCCCC1 [Compound 286]
56 | 50.8 | CCn1c(Oc2ccc(F)cc2)nnc1[C@@H](C)NS(=O)(=O)c1ccsc1 [Compound 294]
57 | 82.1 | CCn1c(Oc2ccc(F)cc2)nnc1[C@@H](C)NS(=O)(=O)c1cc(C)sc1C [Compound 300]
58 | 78.8 | CCn1c(Oc2ccc(F)cc2)nnc1[C@@H](C)NS(=O)(=O)c1ccc(OC)cc1OC [Compound 301]
59 | 76.5 | CCc1ccc(OC)c(S(=O)(=O)N[C@H](C)c2nnc(Oc3ccc(F)cc3)n2CC)c1 [Compound 311]
60 | 52.2 | CCn1c(Oc2ccc(F)cc2)nnc1[C@@H](C)NS(=O)(=O)c1ccc(Cl)c(S(N)(=O)=O)c1 [Compound 314]
61 | 78.9 | CCn1c(Oc2ccc(F)cc2)nnc1[C@@H](C)NS(=O)(=O)c1ccc(Br)c(C(F)(F)F)c1 [Compound 318]
62 | 92.3 | CCn1c(Oc2ccc3cc[nH]c3c2)nnc1[C@@H](C)NS(=O)(=O)c1ccc(C(C)=O)cc1 [Compound 327]
63 | 85.2 | CCn1c(Oc2ccc3cc[nH]c3c2)nnc1[C@@H](C)NS(=O)(=O)c1ccccc1 [Compound 328]
